Assay results reported in patent US9464044B2, “Compound having ability to inhibit 11Beta-HSD1 enzyme or pharmaceutically acceptable salt thereof, method for producing same, and pharmaceutical composition containing same as active ingredient” (AHN-GOOK PHARMACEUTICAL CO., LTD., priority 2012, dated 2016).

Columns and labels:
[1] = test system: KKAy mice; assay: In vivo study of the lowering effect on plasma glucose and plasma insulin in KKAy mouse model; conditions: for levels of plasma glucose and plasma insulin: either 100 mg/kg or 50 mg/kg; for Plasma glucose lowering effect / Plasma insulin lowering effect: oral, 3 weeks, after fasting
[2] = target: 11β-HSD1 (Homo sapiens (Human), UniProt P28845); assay: 11β-HSD1 inhibiting activity, HTRF assay with human microsomal fractions; assay type: biochemical; conditions: 160 nM cortisone, 200 μM NADPH, 2 h at 37° C.
11β-HSD1, sequence (P28845 whole entry): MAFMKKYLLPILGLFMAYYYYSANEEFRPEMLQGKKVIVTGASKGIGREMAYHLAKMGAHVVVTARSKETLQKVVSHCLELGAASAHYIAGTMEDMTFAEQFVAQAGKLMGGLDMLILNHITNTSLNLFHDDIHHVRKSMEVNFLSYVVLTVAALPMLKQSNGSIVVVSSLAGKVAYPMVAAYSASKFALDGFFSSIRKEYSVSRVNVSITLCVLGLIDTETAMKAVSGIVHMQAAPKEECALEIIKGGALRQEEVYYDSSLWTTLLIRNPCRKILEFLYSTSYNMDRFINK
Experimental: The inhibiting activity of 11β-HSD1 derived from microsomal fractions was measured using the HTRF assay (62CO2PEB, Cisbio). […] Europium (Eu^3+) cryptate and XL665-conjugated cortisol were then added to each well and incubated for an additional 2 h at room temperature. The Cortisol concentration was calculated u sing a calibration curve. The IC50 values were calculated from dose response curves using GraphPad Prism software.

## CC(C)(NS(=O)(=O)c1ccccc1F)C(=O)NC1C2CC3CC1CC(C(N)=O)(C3)C2 (centres unmarked) [Example 71, E-4-[2-(2-fluoro-benzenesulfonylamino)-2-methylpropanamido]-adamantan-1-carboxylic acid amide]
[1]
  levels of plasma glucose and plasma insulin: significantly reduced
[1]; 100 mg/kg
  Plasma glucose lowering effect: 27%
  Plasma insulin lowering effect: 40%
[2]
  IC50: 0.6 nM

## CC(C)(NS(=O)(=O)c1c(F)cccc1F)C(=O)NC1C2CC3CC1CC(C(N)=O)(C3)C2 (centres unmarked) [Example 84, E-4-[2-(2,6-difluoro-benzenesulfonylamino)-2-methylpropanamido]adamantan-1-carboxylic acid amide]
[1]
  levels of plasma glucose and plasma insulin: significantly reduced
[1]; 50 mg/kg
  Plasma glucose lowering effect: 19%
  Plasma insulin lowering effect: 43%

## NC(=O)C12CC3CC(C1)C(NC(=O)c1cccc([N-]S(=O)(=O)c4cccc(Cl)c4F)c1)C(C3)C2.[Na+] (centres unmarked) [Example 113, E-sodium[3-((5-carbamoyladamantan-2-yl)carbamoyl)phenyl]-2-fluoro-3-chloro-benzenesulfonylamide]
[1]
  levels of plasma glucose and plasma insulin: significantly reduced
[1]; 100 mg/kg
  Plasma glucose lowering effect: 28%
  Plasma insulin lowering effect: 60%
[2]
  IC50: 2.7 nM

## NC(=O)C12CC3CC(C1)C(NC(=O)c1cccc(NS(=O)(=O)c4cc(Cl)cc(Cl)c4)c1)C(C3)C2 (centres unmarked) [Example 119, E-4-[3-(3,5-dichloro-benzenesulfonylamino)benzamido]-adamantan-1-carboxylic acid amide]
[1]
  levels of plasma glucose and plasma insulin: significantly reduced
[1]; 50 mg/kg
  Plasma glucose lowering effect: 47%
  Plasma insulin lowering effect: 52%
